The source of these data is US10183938B2, “Geminal substituted quinuclidine amide compounds as agonists of α-7 nicotonic acetylcholine receptors” (AXOVANT SCIENCES GMBH, priority 2014, dated 2019).

Structures can show the parent of a compound that is named as a salt. Where two headings read alike, the source gives them in different places.

In experiment [1] the target is human 5-HT3 serotonin receptors (Homo sapiens (Human), UniProt P46098). The experiment in a line: [3H]BRL 43694 competition binding.
Sequence of human 5-HT3 serotonin receptors (P46098 24-478): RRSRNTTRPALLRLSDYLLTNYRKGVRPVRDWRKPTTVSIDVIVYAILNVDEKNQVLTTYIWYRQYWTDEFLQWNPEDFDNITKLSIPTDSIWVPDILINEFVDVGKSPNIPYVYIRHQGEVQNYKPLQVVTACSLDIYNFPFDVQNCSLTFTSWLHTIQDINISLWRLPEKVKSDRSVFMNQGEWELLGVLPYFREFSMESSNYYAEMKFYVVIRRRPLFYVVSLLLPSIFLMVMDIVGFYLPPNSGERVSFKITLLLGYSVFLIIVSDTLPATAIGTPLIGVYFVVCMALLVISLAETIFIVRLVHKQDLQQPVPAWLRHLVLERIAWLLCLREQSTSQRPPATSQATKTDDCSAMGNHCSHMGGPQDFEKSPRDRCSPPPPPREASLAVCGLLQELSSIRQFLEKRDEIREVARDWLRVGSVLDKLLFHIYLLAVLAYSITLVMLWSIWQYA
The target in experiment [2] is human α7 nAChRs transiently expressed in Xenopus laevis oocytes (Homo sapiens (Human), UniProt P36544). The experiment in a line: Oocyte electrophysiology screen (TEVC). Type of experiment: cell-based. The settings on record: 0.01 mM test compound, peak current relative to 0.2 mM ACh. The method in brief:
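Peak inward current from 0.01 mM compound, applied 30 s, is expressed relative to a 5 s 0.2 mM ACh reference response, in triplicate. Recordings used two-electrode voltage clamp at −80 mV in Xenopus oocytes with 90 s OR2 washes.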

The mark [3] stands for this setting: CHO cell membranes, [3H]BRL 43694, Cheng Prusoff, read-out: h-5HT3 Ki.

Sequence of human α7 nAChRs transiently expressed in Xenopus laevis oocytes (P36544 23-502 limits assumed): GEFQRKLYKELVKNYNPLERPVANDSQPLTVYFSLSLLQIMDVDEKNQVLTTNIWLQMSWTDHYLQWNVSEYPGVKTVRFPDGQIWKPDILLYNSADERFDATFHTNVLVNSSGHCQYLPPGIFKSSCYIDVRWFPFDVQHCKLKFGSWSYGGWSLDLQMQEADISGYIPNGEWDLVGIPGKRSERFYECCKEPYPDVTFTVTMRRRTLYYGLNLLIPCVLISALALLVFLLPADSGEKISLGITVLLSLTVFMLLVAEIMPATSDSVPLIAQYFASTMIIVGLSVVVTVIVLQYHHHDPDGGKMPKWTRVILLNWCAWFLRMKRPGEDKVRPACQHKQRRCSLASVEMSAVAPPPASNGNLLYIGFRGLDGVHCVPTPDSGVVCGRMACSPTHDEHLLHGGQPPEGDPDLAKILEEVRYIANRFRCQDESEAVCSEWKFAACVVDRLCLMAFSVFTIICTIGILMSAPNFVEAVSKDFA

As to `O=C(NC1C2CCN(CC2)C12CC2)c1cc2cccc(Cl)c2s1` (single isomer, unassigned; enantiomer1) [56a, 7-chloro-N-(1′-azaspiro[cyclopropane-1,2′-bicyclo[2.2.2]octan]-3′-yl)benzo[b]thiophene-2-carboxamide-enantiomer1], the affinity in experiment [1] corresponds to a Ki of 0.048 µM. The “% ACh @ 10 μM Oocyte” value in experiment [2] is 1231 % ACh. In the case of `O=C(NC1C2CCN(CC2)C12CC2)c1ccc2ccsc2c1` (single isomer, unassigned; enantiomer1) [58a, N-(1′-azaspiro[cyclopropane-1,2′-bicyclo[2.2.2]octan]-3′-yl)benzo[b]thiophene-6-carboxamide-enantiomer1], in experiment [1] (setting [3]), the Ki was found to be 0.91 µM. Further, the “% ACh @ 10 μM Oocyte” value in experiment [2] was 235 % ACh. In turn, `O=C(NC1C2CCN(CC2)C12CC2)c1ccc2occc2c1` (single isomer, unassigned; enantiomer1) [59a, N-(1′-azaspiro[cyclopropane-1,2′-bicyclo[2.2.2]octan]-3′-yl)benzofuran-5-carboxamide-enantiomer1] registered a Ki in experiment [1] of 6.5 µM. For the same compound, in experiment [2], the “% ACh @ 10 μM Oocyte” value was determined as 823 % ACh. Take `O=C(NC1C2CCN(CC2)C12CC2)c1cc2cccc(C(F)(F)F)c2s1` (single isomer, unassigned; enantiomer1) [60a, N-(1′-azaspiro[cyclopropane-1,2′-bicyclo[2.2.2]octan]-3′-yl)-7-(trifluoromethyl)benzo[b]thiophene-2-carboxamide-enantiomer1]: the Ki in experiment [1] (setting [3]) was found to be 1.01 µM. In experiment [2], the “% ACh @ 10 μM Oocyte” value is listed as 501 % ACh. For `O=C(NC1C2CCN(CC2)C12CC2)c1cc2ccc(F)cc2s1` (single isomer, unassigned; enantiomer1) [61a, 6-fluoro-N-(1′-azaspiro[cyclopropane-1,2′-bicyclo[2.2.2]octan]-3′-yl)benzo[b]thiophene-2-carboxamide-enantiomer1] the same measures were 1.5 µM and 1493 % ACh. In turn, `O=C(NC1C2CCN(CC2)C12CC2)c1cc2cc(F)ccc2s1` (single isomer, unassigned; enantiomer1) [64a, 5-fluoro-N-(1′-azaspiro[cyclopropane-1,2′-bicyclo[2.2.2]octan]-3′-yl)benzo[b]thiophene-2-carboxamide-enantiomer1] displayed a Ki in experiment [1] of 0.42 µM. In experiment [2], the “% ACh @ 10 μM Oocyte” value amounted to 511 % ACh.

Turning to `CC1(c2cccc3cc(C(=O)N[C@@H]4C5CCN(CC5)C45CC5)sc23)CC1` [(R)-188, (R)-7-(1-methylcyclopropyl)-N-(1′-azaspiro[cyclopropane-1,2′-bicyclo[2.2.2]octan]-3′-yl)benzo[b]thiophene-2-carboxamide-hydrochloride], the Ki in experiment [1] (setting [3]) stood at 0.2 µM. For `CCOc1ccc2cc(C(=O)N[C@@H]3C4CCN(CC4)C34CC4)sc2c1` [(R)-189, (R)-6-ethoxy-N-(1′-azaspiro[cyclopropane-1,2′-bicyclo[2.2.2]octan]-3′-yl)benzo[b]thiophene-2-carboxamide hydrochloride], the Ki in experiment [1] (setting [3]) is more than 10 µM.

On to `CCOc1cccc2cc(C(=O)N[C@@H]3C4CCN(CC4)C34CC4)sc12` [(R)-190, (R)-7-ethoxy-N-(1′-azaspiro[cyclopropane-1,2′-bicyclo[2.2.2]octan]-3′-yl)benzo[b]thiophene-2-carboxamide hydrochloride], for which the Ki in experiment [1] (setting [3]) came to 0.29 µM. Still for that read-out and setting: the result for `CC(C)Oc1cccc2cc(C(=O)N[C@@H]3C4CCN(CC4)C34CC4)sc12` [(R)-191, (R)-7-isopropoxy-N-(1′-azaspiro[cyclopropane-1,2′-bicyclo[2.2.2]octan]-3′-yl)benzo[b]thiophene-2-carboxamide hydrochloride] reads 0.16 µM. Consider `COc1c(Cl)ccc2cc(C(=O)N[C@@H]3C4CCN(CC4)C34CC4)sc12` [(R)-192, (R)-6-chloro-7-methoxy-N-(1′-azaspiro[cyclopropane-1,2′-bicyclo[2.2.2]octan]-3′-yl)benzo[b]thiophene-2-carboxamide hydrochloride], for which the Ki in experiment [1] (setting [3]) was more than 10 µM. On the same count and under the same terms, the result for `COc1c(C)ccc2cc(C(=O)N[C@@H]3C4CCN(CC4)C34CC4)sc12` [(R)-193, (R)-7-methoxy-6-methyl-N-(1′-azaspiro[cyclopropane-1,2′-bicyclo[2.2.2]octan]-3′-yl)benzo[b]thiophene-2-carboxamide hydrochloride] reads 6 µM; that for `O=C(N[C@@H]1C2CCN(CC2)C12CC2)c1n[nH]c2ccccc12` [(R)-194, (R)—N-(1′-azaspiro[cyclopropane-1,2′-bicyclo[2.2.2]octan]-3′-yl)-1H-indazole-3-carboxamide hydrochloride], 0.079 µM; that for `Cc1ccc2cc(C(=O)N[C@@H]3C4CCN(CC4)C34CC4)sc2c1C1CC1` [(R)-196, (R)-7-cyclopropyl-6-methyl-N-(1′-azaspiro[cyclopropane-1,2′-bicyclo[2.2.2]octan]-3′-yl)benzo[b]thiophene-2-carboxamide hydrochloride], 0.61 µM. Still for that read-out and setting: the result for `COc1c(F)ccc2cc(C(=O)N[C@@H]3C4CCN(CC4)C34CC4)sc12` [(R)-197, (R)-6-fluoro-7-methoxy-N-(1′-azaspiro[cyclopropane-1,2′-bicyclo[2.2.2]octan]-3′-yl)benzo[b]thiophene-2-carboxamide hydrochloride] reads 2.8 µM. With `Cc1ccc2cc(C(=O)N[C@@H]3C4CCN(CC4)C34CC4)sc2c1C#N` [(R)-198, (R)-7-cyano-6-methyl-N-(1′-azaspiro[cyclopropane-1,2′-bicyclo[2.2.2]octan]-3′-yl)benzo[b]thiophene-2-carboxamide hydrochloride], in experiment [1] (setting [3]), the Ki was more than 10 µM. With `COCc1cccc2cc(C(=O)N[C@@H]3C4CCN(CC4)C34CC4)sc12` [(R)-199, (R)-7-(methoxymethyl)-N-(1′-azaspiro[cyclopropane-1,2′-bicyclo[2.2.2]octan]-3′-yl)benzo[b]thiophene-2-carboxamide hydrochloride], the Ki in experiment [1] (setting [3]) worked out at 0.58 µM.

`O=C(N[C@@H]1C2CCN(CC2)C12CC2)c1cc2ccc3c(c2s1)OCCC3` [(R)-201, (R)—N-(1′-azaspiro[cyclopropane-1,2′-bicyclo[2.2.2]octan]-3′-yl)-3,4-dihydro-2H-thieno[3,2-h]chromene-8-carboxamide hydrochloride]: the Ki in experiment [1] (setting [3]) was found to be 3.6 µM. Consider `O=C(N[C@@H]1C2CCN(CC2)C12CC2)c1ccc2cc(Cl)sc2c1` [(R)-203, (R)-2-chloro-N-(1′-azaspiro[cyclopropane-1,2′-bicyclo[2.2.2]octan]-3′-yl)benzo[b]thiophene-6-carboxamide hydrochloride], for which the Ki in experiment [1] (setting [3]) came to 2.3 µM.

Regarding `O=C(N[C@@H]1C2CCN(CC2)C12CC2)c1cc2ccc3c(c2s1)CCCO3` [(R)-204, (R)—N-(1′-azaspiro[cyclopropane-1,2′-bicyclo[2.2.2]octan]-3′-yl)-8,9-dihydro-7H-thieno[2,3-f]chromene-2-carboxamide hydrochloride], in experiment [1] (setting [3]), the Ki is more than 10 µM. Consider `Cc1c(Cl)ccc2cc(C(=O)N[C@@H]3C4CCN(CC4)C34CC4)sc12` [(R)-205, (R)-6-chloro-7-methyl-N-(1′-azaspiro[cyclopropane-1,2′-bicyclo[2.2.2]octan]-3′-yl)benzo[b]thiophene-2-carboxamide hydrochloride], for which, in experiment [1] (setting [3]), the Ki was 2.6 µM. Still for that read-out and setting: the value for `COc1c(C2CC2)ccc2cc(C(=O)N[C@@H]3C4CCN(CC4)C34CC4)sc12` [(R)-262, (R)-6-cyclopropyl-7-methoxy-N-(1′-azaspiro[cyclopropane-1,2′-bicyclo[2.2.2]octan]-3′-yl)benzo[b]thiophene-2-carboxamide hydrochloride] was more than 10 µM.

By Ki is commonly meant a measure of affinity in units of concentration, obtained from inhibition or displacement.
